“Also recorded” adds a separate entry of the source. Counter-ions that a name gives are not always drawn. Like-named read-outs stand apart in the source and are kept apart here.
Tests used:
[1] = 1H NMR titration with octyloxy pyranoside α-Man; type: binding; parameters: key to Ka (M^−1) with α-Man: No detectable binding; details: for Ka (M^−1) with α-Man: NMR titrations in CD2Cl2 at 298 K; for affinity for α-Man relative to SCR001: fold / ratio SCR:SCR001
[2] = 1H NMR titration with octyloxy pyranoside β-Gal; type: binding; details: NMR titrations
[3] = 1H NMR titration with octyloxy pyranoside α-Glc; type: binding; details: NMR titrations
[4] = tested on: ZIKV GFP RVPs; assay: microbe, parasite or virus in culture; details: Zika virus, Vero
[5] = Selectivity across the five octyloxy pyranosides from NMR titrations; type: binding; details: for glycan preference in words / binding profile across the glycans in words: five octyloxy pyranosides, CD2Cl2, 298 K; for affinity for β-Glc over α-Man: times
[6] = 1H NMR titration with octyloxy pyranoside β-Glc; type: binding; details: for K1 (1:1 association constant) with β-Glc: CD2Cl2, 298 K; for affinity for β-Glc relative to SCR001: fold / ratio SCR:SCR001
[7] = tested on: HIV-1; details: cell culture; cited from earlier work
[8] = tested on: ZIKV GFP RVPs
[9] = Cellular toxicity, CellTiter-Glo, Vero cells; details: African green monkey
[10] = tested on: Vero cells; assay: Cellular toxicity, CellTiter-Glo, Vero cells; details: for CC50: read-out: TC50, Table 1, 72 h, CellTiter-Glo
[11] = 1H NMR titration with octyloxy pyranoside β-Man; type: binding; parameters: key to Ka (M^−1) with β-Man: No detectable binding; details: for Ka (M^−1) with β-Man: NMR titrations in CD2Cl2 at 298 K
[12] = tested on: HeLa cells; assay: Cellular toxicity, CellTiter-Glo, HeLa cells; details: read-out: TC50, Table 2, 72 h
[13] = tested on: ZIKV RVPs; assay: microbe, parasite or virus in culture; type: cell-based, Zika virus; details: for IC50: Zika virus, HeLa
[14] = Table 3, Vero cells, ZIKV RVPs, average of at least two independent measurements
[15] = Table 3 study, Vero cells, ZIKV RVPs, unit μm [sic]
[16] = Table 1, Vero cells, compounds 30 min before ZIKV RVPs, GFP+ cells 72 h postinfection
[17] = read-out: IC50 (strong antiviral activity), Vero cells, ZIKV RVPs

c1cncc(CNCc2cc(CNCc3cccnc3)cc(-c3cc(CNCc4cccnc4)cc(CNCc4cccnc4)c3)c2)c1 [SCR021, 1,1′,1″,1′″-([1,1′-biphenyl]-3,3′,5,5′-tetrayl)tetrakis(N-(pyridin-3-ylmethyl)methanamine)]
Ka (M^−1) with α-Man ([1]; 1:1 binding): 490 M⁻¹
binding to β-Gal in words [2]: no substantial binding
binding to α-Glc in words [3]: no substantial binding
IC50 [4, 14]: > 100 µM
IC50 [4, 15]: > 100 µM
glycan preference in words [5]: prefer β-Glc
affinity for β-Glc over α-Man [5]: 67
K2 (1:2 SCR·glycan association constant) with β-Glc ([6]; 1:2 SCR·glycan complexes): 12000 M⁻¹
cumulative association constant β with β-Glc ([6]; 1:2 SCR·glycan complexes): 3.3×10^4 M^−2
K1 (1:1 association constant) with β-Glc [6]: 2.7 M⁻¹
affinity for β-Glc relative to SCR001 [6]: 25

COc1cc(O)c2c(c1)C(=O)c1c(cc3c(c1O)-c1c(cc(C)c(C(=O)N[C@H](C)C(=O)O)c1O)[C@H](O[C@@H]1O[C@H](C)[C@H](O)[C@H](O[C@@H]4OC[C@@H](O)[C@H](O)[C@H]4O)[C@H]1O)[C@H]3O)C2=O [benanomicin A]
50% effective concentration against HIV-1 [7]: micromolar concentration range

NCc1cc(CN)cc(-c2cc(CN)cc(CN)c2)c1 [Compound 2, [1,1′-biphenyl]-3,3′,5,5′-tetrayltetramethanamine tetrahydrochloride]
IC50 [4, 16]: > 100 µM

c1cc(CNCc2cc(CNCc3cc[nH]c3)cc(-c3cc(CNCc4cc[nH]c4)cc(CNCc4cc[nH]c4)c3)c2)c[nH]1 [SCR017, 1,1′,1″,1′″-([1,1′-biphenyl]-3,3′,5,5′-tetrayl)tetrakis(N-((1H-pyrrol-3-yl)methyl)methanamine)]
IC50 [4, 14]: 4.8 ± 0.4 µM
IC50 [4, 15]: < 5 µM
IC50 [4, 17]: < 5 µM
glycan preference in words [5]: prefers β-Glc; also recorded: specific for β-Glc
IC50 relative to regioisomer ([8]; SCR023 vs SCR022, SCR017 vs SCR001): four times higher
therapeutic index (TC50/IC50) ([8]; Table 3, Vero cells): 66
anti-ZIKV activity in words ([8]; Vero cells, ZIKV RVPs): potent anti-ZIKV activity
CC50 at 72 h [9]: 316 ± 18 µM
K2 (1:2 SCR·glycan association constant) with β-Glc ([6]; 1:2 SCR·glycan complexes): 6800 M⁻¹
cumulative association constant β with β-Glc ([6]; 1:2 SCR·glycan complexes): 8.4×10^1 M^−2
cumulative association constant β with β-Glc ([6]; 1:2 SCR·glycan, unit M^2): 8.4×10^1 M^2
K1 (1:1 association constant) with β-Glc [6]: 1.2 M⁻¹
affinity for β-Glc relative to SCR001 [6]: 7

O=C(NCc1cc(CNC(=O)c2cccs2)cc(-c2cc(CNC(=O)c3cccs3)cc(CNC(=O)c3cccs3)c2)c1)c1cccs1 [SCR008, N,N,N′,N″-([1,1′-biphenyl]-3,3′,5,5′-tetrayltetrakis(methylene))tetrakis(thiophene-2-carboxamide)]
IC50 [8]: > 100 µM
anti-ZIKV activity in words [8]: not effective

Oc1ccccc1CNCc1cc(CNCc2ccccc2O)cc(-c2cc(CNCc3ccccc3O)cc(CNCc3ccccc3O)c2)c1 [SCR022, 2,2′,2″,2′″-((([1,1′-biphenyl]-3,3′,5,5′-tetrayltetrakis(methylene))tetrakis(azanediyl))tetrakis(methylene))tetraphenol]
Ka (M^−1) with α-Man ([1]; 1:1 binding): 280 M⁻¹
binding to β-Gal in words [2]: no substantial binding
binding to α-Glc in words [3]: no substantial binding
IC50 [4, 14]: 2.5 ± 0.6 µM
IC50 [4, 15]: < 5 µM
IC50 [4, 17]: < 5 µM
glycan preference in words [5]: prefer β-Glc
affinity for β-Glc over α-Man [5]: 290
therapeutic index (TC50/IC50) ([8]; Table 3, Vero cells): 2
anti-ZIKV activity in words ([8]; Vero cells, ZIKV RVPs): potent anti-ZIKV activity
cellular toxicity in words [10]: toxic to Vero cells
CC50 at 72 h [9]: 4.6 ± 1.1 µM
K2 (2:1 SCR·glycan association constant) with β-Glc ([6]; 2:1 SCR·glycan complexes): 690 M⁻¹
cumulative association constant β with β-Glc ([6]; 2:1 SCR·glycan complexes): 8.1×10^4 M^−2
K1 (1:1 association constant) with β-Glc [6]: 120 M⁻¹
affinity for β-Glc relative to SCR001 [6]: 62

c1ccc(CNCc2cc(CNCc3ccccn3)cc(-c3cc(CNCc4ccccn4)cc(CNCc4ccccn4)c3)c2)nc1 [SCR020, 1,1′,1″,1′″-([1,1′-biphenyl]-3,3′,5,5′-tetrayl)tetrakis(N-(pyridin-2-ylmethyl)methanamine)]
K2 (1:2 SCR·glycan association constant) with α-Man ([1]; 1:2 SCR·glycan binding model): 11 M⁻¹
cumulative association constant β with α-Man ([1]; 1:2 SCR·glycan binding model): 2.8×10^5 M^−2
cumulative association constant β with α-Man ([1]; 1:2 SCR·glycan, unit M^2): 2.8×10^5 M^2
K1 (1:1 association constant) with α-Man ([1]; CD2Cl2, 298 K): 260 M⁻¹
affinity for α-Man relative to SCR001 [1]: 200
change in affinity for α-Man, SCR020 and SCR021 ([1]; times): 570
IC50 [4, 14]: < 20 µM
glycan preference in words [5]: uniquely bind α-Man; also recorded: specific for α-Man
therapeutic index (TC50/IC50) ([8]; Table 3, Vero cells): 9
IC50 [8, 14]: 19.9 ± 14.4 µM
anti-ZIKV activity in words ([8]; Vero cells, ZIKV RVPs): weaker inhibition
CC50 at 72 h [9]: 178 ± 99 µM

c1ccc2c(CNCc3cc(CNCc4c[nH]c5ccccc45)cc(-c4cc(CNCc5c[nH]c6ccccc56)cc(CNCc5c[nH]c6ccccc56)c4)c3)c[nH]c2c1 [SCR019, 1,1′,1″,1′″-([1,1′-biphenyl]-3,3′,5,5′-tetrayl)tetrakis(N-((1H-indol-3-yl)methyl)methanamine)]
Ka (M^−1) with α-Man ([1]; 1:1 binding): 290 M⁻¹
binding to α-Glc in words [3]: no substantial binding
IC50 [4, 14]: 0.26 µM
IC50 [4, 17]: < 5 µM
glycan preference in words [5]: prefers β-Man; also recorded: selective for Mannosides with a preference for the β-anomer
affinity for β-Man over α-Man ([5]; fold): 250
cumulative association constant β=K1×K2 with β-Man ([11]; 1:2 SCR·glycan binding model): 7.4×10^4 M^−2
cumulative association constant β with β-Man ([11]; 1:2 SCR·glycan, unit M^2): 7.4×10^4 M^2
K1 (1:1 association constant) with β-Man ([11]; CD2Cl2, 298 K): 2.3 M⁻¹
K2 (1:2 SCR·glycan association constant) with β-Man ([11]; CD2Cl2, 298 K, 1:2 SCR·glycan binding model): 32000 M⁻¹
affinity for β-Man relative to SCR001 ([11]; SCR019:SCR001): 2
therapeutic index (TC50/IC50) ([8]; Table 3, Vero cells): 153
cellular toxicity in words [10]: minimal cellular toxicity; also recorded: low off-site toxicity
CC50 at 72 h [9]: 39.8 ± 1.7 µM

c1ccc2[nH]c(CNCc3cc(CNCc4cc5ccccc5[nH]4)cc(-c4cc(CNCc5cc6ccccc6[nH]5)cc(CNCc5cc6ccccc6[nH]5)c4)c3)cc2c1 [SCR018, 1,1′,1″,1′″-([1,1′-biphenyl]-3,3′,5,5′-tetrayl)tetrakis(N-((1H-indol-2-yl)methyl)methanamine)]
fold selectivity for α-Man, SCR019 compared to SCR018 ([1]; 2-indole vs 3-indole): 36
Ka (M^−1) with α-Man ([1]; 1:1 binding): 11000 M⁻¹
affinity for α-Man relative to SCR001 [1]: 10
glycan preference in words [5]: uniquely bind α-Man; also recorded: specific for α-Man
therapeutic index (TC50/IC50) ([8]; Table 3, Vero cells): 2
anti-ZIKV activity in words ([8]; Vero cells, ZIKV RVPs): weaker inhibition
CC50 at 72 h [9]: 29.8 ± 5 µM
binding to β-Glc in words ([6]; NMR peak shifting upon mixing): no substantial binding

c1c[nH]c(CNCc2cc(CNCc3ccc[nH]3)cc(-c3cc(CNCc4ccc[nH]4)cc(Cn4cc(COCCOCCOCCOCc5cn(Cc6cc(CNCc7ccc[nH]7)cc(-c7cc(CNCc8ccc[nH]8)cc(CNCc8ccc[nH]8)c7)c6)nn5)nn4)c3)c2)c1 [SCR012]
Ka (M^−1) with α-Man ([1]; 1:1 binding): 2600 M⁻¹
binding profile across the glycans in words [5]: promiscuous; also recorded: bind all five glycans
Ka (M^−1) with β-Man ([11]; 1:1 binding): 1700 M⁻¹
CC50 [10]: 36.2 µM
CC50 [12]: 2.48 µM

c1csc(CNCc2cc(CNCc3cccs3)cc(-c3cc(CNCc4cccs4)cc(CNCc4cccs4)c3)c2)c1 [SCR003, 1,1′,1″,1′″-([1,1′-biphenyl]-3,3′,5,5′-tetrayl)tetrakis(N-(thiophen-2-ylmethyl)methanamine)]
Ka (M^−1) with α-Man [1]: c
IC50 [4, 16]: 1.31 µM
binding profile across the glycans in words [5]: only had measurable binding with β-Glc, and α-Man; also recorded: binds only β-Glc and α-Man
glycan preference in words [5]: preference for α-Man; also recorded: selective for α-Man
Ka (M^−1) with β-Man [11]: c
Ka (M^−1) with β-Man ([11]; 1:1 binding): < 30 M⁻¹
anti-ZIKV activity in words ([8]; Vero cells, ZIKV RVPs): less potent
IC50 [13]: 0.56 ± 0.08 µM
CC50 [10]: 4.12 µM
CC50 [12]: 2.47 µM

c1coc(CNCc2cc(CNCc3ccco3)cc(-c3cc(CNCc4ccco4)cc(CNCc4ccco4)c3)c2)c1 [SCR002, 1,1′,1″,1′″-([1,1′-biphenyl]-3,3′,5,5′-tetrayl)tetrakis(N-(furan-2-ylmethyl)methanamine)]
Ka (M^−1) with α-Man ([1]; 1:1 binding): 1400 M⁻¹
IC50 [4, 16]: 1.13 ± 0.23 µM
binding profile across the glycans in words [5]: measurable binding with only β-Glc, β-Man and α-Man; also recorded: binds only β-Glc, β-Man, and α-Man
glycan preference in words [5]: preference for α-Man; also recorded: selective for α-Man
Ka (M^−1) with β-Man ([11]; 1:1 binding): 54 M⁻¹
anti-ZIKV activity in words ([8]; Vero cells, ZIKV RVPs): less potent
anti-ZIKV activity in words ([13]; HeLa cells, ZIKV RVPs): more potent than SCR001
IC50 [13]: 0.35 ± 0.09 µM
CC50 [10]: 5.43 µM
CC50 [12]: 2.51 µM

CN[C@@H]1[C@H](O[C@@H]2OC[C@@H](O)[C@H](O)[C@H]2O)[C@@H](O)[C@H](O[C@H]2c3cc(C)c(C(=O)N[C@H](C)C(=O)O)c(O)c3-c3c(cc4c(c3O)C(=O)c3cc(OC)cc(O)c3C4=O)[C@@H]2O)O[C@@H]1C [pradimicin A]
50% effective concentration against HIV-1 [7]: micromolar concentration range
